From patent US20180155757A1, “IDENTIFICATION OF BACTERIA THAT ARE RESISTANT TO CARBAPENEMS BY MEMBRANE IMPERVIOUSNESS” (BIOMÉRIEUX, priority 2015, published 2018)
Where two headings read alike, the source gives them in different places.

Key:
Assay in all cases: Etest MIC of indicator carbapenems on MH II agar without/with PMBN
Type in all cases: cell-based
E. aerogenes 9203076 = conditions: Klebsiella aerogenes, 9203076, E. aerogenes 9203076 (porin−), Table 4, read-out: MIC
Procedure: (§1) The determinations of antibiotic MIC were carried out on solid culture media with the Etest® method. To do this, Etest® strips (bioMérieux, France) were used: • Etest® Imipenem IM 32, and • Etest® Ertapenem ETP 32, and also solid culture media, differing from one another by virtue of their non-inhibitory concentrations of PMBN.
(§2) These solid culture media are prepared in Petri dishes (0=145 mm; V=50 ml) on a base of MH II Agar (Becton Dickinson®, United States), more or less supplemented with PMBN. The PMBN concentrations range from 0 up to concentrations equivalent to one fifth of the MIC of PMBN (⅕ MICPMBN).
(§3) Using a swab and the Retro C80™ rota-plater (bioMérieux, France), the culture media were inoculated with the bacteria, originating from an inoculum of 0.5 McFarland, prepared in 0.85% NaCl solution from colonies subcultured the day before on MH II agar.
(§4) The various Etest® strips are then deposited on the surface of the culture media. After 16 to 20 hours of incubation at 35° C., the MICS were read.
(§5) To do this, imipenem and ertapenem were used as indicator carbapenems. Non-inhibitory concentrations of PMBN, equivalent to concentrations of one tenth ( 1/10), one eighth (⅛) and one fifth (⅕) of the MIC of PMBN, were applied.
(§6) In the light of the MICPMBN values previously identified, very predominantly much higher than 300 μg/ml, the following standard concentrations were retained and applied to the bacterial strains to be tested: 50, 100, 150, 200 and 300 μg/ml.
(§7) By way of indicator carbapenems according to the invention, in addition to imipenem (IM) and ertapenem (ETP), meropenem (MP) was also tested. Like the other two antibiotics, meropenem was used in the form of Etest® strips (Etest® Meropenem MP 32 from the company bioMérieux, France).
(§8) The methods used to prepare the new culture media and to carry out the antibiotic-sensitivity tests are identical to those described above.

E. coli 1204043 = test system: E. coli 1204043
Procedure: as §1, §2, §3, §4, §5, §6, §7, §8

E. cloacae 9402034 = test system: E. cloacae 9402034
Procedure: as §1, §2, §3, §4, §5, §6, §7, §8

K. pneumoniae 1002015 = test system: K. pneumoniae 1002015
Procedure: as §1, §2, §3, §4, §5, §6, §7, §8

E. aerogenes 9306071 = test system: E. aerogenes 9306071
Procedure: as §1, §2, §3, §4, §5, §6, §7, §8

E. aerogenes 1204048 = conditions: in µg/mL
Procedure: as §1, §2, §3, §4, §5, §6, §7, §8

Compound: C[C@@H](O)[C@H]1C(=O)N2C(C(=O)O)=C(SCCN=CN)C[C@H]12 [IM, imipenem]
- MIC (E. aerogenes 9203076; [PMBN] 0): 6 µg/mL
- MIC (E. aerogenes 9203076; [PMBN] 150 μg/ml): 3 µg/mL
- MIC (E. aerogenes 9203076; [PMBN] 200 μg/ml): 3 µg/mL
- MIC (E. coli 1204043; E. coli 1204043 (membrane impermeability), [PMBN] 0, Table 4a, in µg/mL): >32
- MIC (E. coli 1204043; E. coli 1204043 (membrane impermeability), [PMBN] 100, Table 4a, in µg/mL): 6-8
- MIC (E. coli 1204043; E. coli 1204043 (membrane impermeability), [PMBN] 200, Table 4a, in µg/mL): 3-6
- MIC (E. coli 1204043; E. coli 1204043 (membrane impermeability), [PMBN] 300, Table 4a, in µg/mL): 3
- MIC (E. coli 1204043; E. coli 1204043, [PMBN] 0, Table 3, in µg/mL): 8
- MIC (E. coli 1204043; E. coli 1204043, [PMBN] MIC/5, in µg/mL): 1
- MIC (E. coli 1204043; E. coli 1204043, [PMBN] MIC/8, in µg/mL): 1
- MIC (E. coli 1204043; E. coli 1204043, [PMBN] MIC/10, in µg/mL): 2
- MIC (E. coli 1204043; Escherichia coli, 1204043, E. coli 1204043 (porin−), [PMBN] 0, Table 4, read-out: MIC): 24 µg/mL
- MIC (E. coli 1204043; Escherichia coli, 1204043, E. coli 1204043 (porin−), [PMBN] 150 μg/ml, Table 4, read-out: MIC): 1 µg/mL
- MIC (E. coli 1204043; Escherichia coli, 1204043, E. coli 1204043 (porin−), [PMBN] 200 μg/ml, Table 4, read-out: MIC): 0.25 µg/mL
- MIC (E. cloacae 9402034; E. cloacae 9402034 (membrane impermeability), [PMBN] 0, Table 4a): > 32 µg/mL
- MIC (E. cloacae 9402034; E. cloacae 9402034 (membrane impermeability), [PMBN] 100, Table 4a): 8 µg/mL
- MIC (E. cloacae 9402034; E. cloacae 9402034 (membrane impermeability), [PMBN] 200, Table 4a): 12 µg/mL
- MIC (E. cloacae 9402034; E. cloacae 9402034 (membrane impermeability), [PMBN] 300, Table 4a): 12 µg/mL
- MIC (E. cloacae 9402034; E. cloacae 9402034, [PMBN] 0, Table 3): 16 µg/mL
- MIC (E. cloacae 9402034; E. cloacae 9402034, [PMBN] MIC/5): 8 µg/mL
- MIC (E. cloacae 9402034; E. cloacae 9402034, [PMBN] MIC/8): 8 µg/mL
- MIC (E. cloacae 9402034; E. cloacae 9402034, [PMBN] MIC/10): 8 µg/mL
- MIC (K. pneumoniae 1002015; K. pneumoniae 1002015, [PMBN] 0, Table 3): 2 µg/mL
- MIC (K. pneumoniae 1002015; K. pneumoniae 1002015, [PMBN] MIC/5): 0.25 µg/mL
- MIC (K. pneumoniae 1002015; K. pneumoniae 1002015, [PMBN] MIC/8): 0.25 µg/mL
- MIC (K. pneumoniae 1002015; K. pneumoniae 1002015, [PMBN] MIC/10): 0.5 µg/mL
- MIC (K. pneumoniae 1002015; Klebsiella pneumoniae, 1002015, K. pneumoniae 1002015 (porin−), [PMBN] 0, Table 4, read-out: MIC): 0.5 µg/mL
- MIC (K. pneumoniae 1002015; Klebsiella pneumoniae, 1002015, K. pneumoniae 1002015 (porin−), [PMBN] 150 μg/ml, Table 4, read-out: MIC): 0.38 µg/mL
- MIC (K. pneumoniae 1002015; Klebsiella pneumoniae, 1002015, K. pneumoniae 1002015 (porin−), [PMBN] 200 μg/ml, Table 4, read-out: MIC): 0.25 µg/mL
- MIC (E. aerogenes 9306071; E. aerogenes 9306071 (membrane impermeability), [PMBN] 0, Table 4a): 12 µg/mL
- MIC (E. aerogenes 9306071; E. aerogenes 9306071 (membrane impermeability), [PMBN] 100, Table 4a): 6 µg/mL
- MIC (E. aerogenes 9306071; E. aerogenes 9306071 (membrane impermeability), [PMBN] 200, Table 4a): 3 µg/mL
- MIC (E. aerogenes 9306071; E. aerogenes 9306071 (membrane impermeability), [PMBN] 300, Table 4a): 2 µg/mL
- MIC (E. aerogenes 9306071; E. aerogenes 9306071, [PMBN] 0, Table 3): 8 µg/mL
- MIC (E. aerogenes 9306071; E. aerogenes 9306071, [PMBN] MIC/5): 2 µg/mL
- MIC (E. aerogenes 9306071; E. aerogenes 9306071, [PMBN] MIC/8): 4 µg/mL
- MIC (E. aerogenes 9306071; E. aerogenes 9306071, [PMBN] MIC/10): 4 µg/mL
- MIC (E. aerogenes 1204048; E. aerogenes 1204048 (membrane impermeability), [PMBN] 0, Table 4a): >32
- MIC (E. aerogenes 1204048; E. aerogenes 1204048 (membrane impermeability), [PMBN] 100, Table 4a): 12
- MIC (E. aerogenes 1204048; E. aerogenes 1204048 (membrane impermeability), [PMBN] 200, Table 4a): 6
- MIC (E. aerogenes 1204048; E. aerogenes 1204048 (membrane impermeability), [PMBN] 300, Table 4a): 3
- MIC (E. aerogenes 1204048; E. aerogenes 1204048, [PMBN] 0, Table 3): 16
- MIC (E. aerogenes 1204048; E. aerogenes 1204048, [PMBN] MIC/5): 0.5
- MIC (E. aerogenes 1204048; E. aerogenes 1204048, [PMBN] MIC/8): 1
- MIC (E. aerogenes 1204048; E. aerogenes 1204048, [PMBN] MIC/10): 2
